One test concerns the target T1, human NK3 receptor (Homo sapiens, UniProt P29371).
T1 construct: expressed in transfected cells; host or cells: human U2OS cells transiently transduced with recombinant BacMam virus
T1 sequence (P29371 1-465): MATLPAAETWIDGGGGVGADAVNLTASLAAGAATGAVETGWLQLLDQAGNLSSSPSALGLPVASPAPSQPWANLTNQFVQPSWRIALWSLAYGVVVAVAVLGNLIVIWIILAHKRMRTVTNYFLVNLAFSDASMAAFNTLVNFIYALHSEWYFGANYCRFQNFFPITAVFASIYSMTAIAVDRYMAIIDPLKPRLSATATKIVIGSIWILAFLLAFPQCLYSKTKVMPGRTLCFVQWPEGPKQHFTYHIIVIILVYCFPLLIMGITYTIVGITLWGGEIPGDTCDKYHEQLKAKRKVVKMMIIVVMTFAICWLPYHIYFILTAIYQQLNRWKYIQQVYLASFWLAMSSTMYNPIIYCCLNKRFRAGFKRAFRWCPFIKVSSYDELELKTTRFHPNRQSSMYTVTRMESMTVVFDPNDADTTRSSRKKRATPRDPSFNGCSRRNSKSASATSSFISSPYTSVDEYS
Briefly: NK functional potency, FLIPR calcium release in U2OS cells (NKB as ligand). Format: cell-based. Conditions: BacMam human NK3, average of at least two determinations, read-out: NK3 pKi (functional potency, fpKi) (converted). The text has this:
(§1) Compounds of the invention were further characterised in a functional assay using FLIPR technology for the determination of their effect to inhibit the intracellular calcium release induced by interaction of NK receptors with its perspective ligands. Human U2OS cells transiently transduced with recombinant BacMam virus expressing human NK1, NK2 and NK3 receptors were used in the studies (see J. P. Condreay et al, Proc. Natl. Acad. Sci. USA 1999, 96(1): 127-132). Briefly, U2OS cells were harvested from tissue culture flasks, re-suspended to a cell density of 200-300K/ml and mixed with recombinant BacMam virus carrying NKR gene in a virus/cell ratio of 1% (v/v). 10K-15K cells/well were then seeded in 384-well Greiner bio-one plate in culture medium (DMEM with 10% FBS), incubated overnight in 5% CO2 at 37° C. After aspirating the medium, cells were loaded 18-24 hr later with cytoplasmic calcium indicator Fluo-4 Calcium 3 dye (Molecular Devices Co.) in 30 uL/well buffer (Hank's balanced salts with 20 mM Hepes) and incubated in CO2 at 37° C. for 60 minutes. 10 uL/well assay buffer (Hank's balanced salts with 20 mM Hepes) containing different concentrations of compounds were then added to the cells for 30 minutes incubation at 37° C. Finally, 10 uL/well of NKR ligands in assay buffer containing 0.1% BSA was added to the cells and fluorescence signal read on a FLIPR system. Substance P, NKA and NKB peptides were used as the ligands for NK1, NK2 and NK3 receptor, respectively. IC50 values of each compound were determined by an 11-point 3×-dilution inhibition curve. The potency each antagonist (fpKi) was calculated from pIC50 by the Cheng-Prusoff equation using EC50 of ligand determined in a separate experiment.
(§2) The compounds of Example 11, Examples 2, 4 and 6 were tested in the NK functional potency assay.

The next test addresses human NK1 receptor (Homo sapiens, UniProt P25103). The experiment in a line: NK functional potency, FLIPR calcium release in U2OS cells (Substance P as ligand). Conditions: BacMam human NK1, average of at least two determinations, read-out: NK1 pKi (functional potency, fpKi) (converted). It counts as cell-based. Further details: expressed in transfected cells; host or cells: human U2OS cells transiently transduced with recombinant BacMam virus.
Text: as §1, §2

Structures can show the parent of a compound that is named as a salt. A value given as a limit tells only on which side of the number the result lay.

human NK1 receptor, sequence (P25103 whole entry): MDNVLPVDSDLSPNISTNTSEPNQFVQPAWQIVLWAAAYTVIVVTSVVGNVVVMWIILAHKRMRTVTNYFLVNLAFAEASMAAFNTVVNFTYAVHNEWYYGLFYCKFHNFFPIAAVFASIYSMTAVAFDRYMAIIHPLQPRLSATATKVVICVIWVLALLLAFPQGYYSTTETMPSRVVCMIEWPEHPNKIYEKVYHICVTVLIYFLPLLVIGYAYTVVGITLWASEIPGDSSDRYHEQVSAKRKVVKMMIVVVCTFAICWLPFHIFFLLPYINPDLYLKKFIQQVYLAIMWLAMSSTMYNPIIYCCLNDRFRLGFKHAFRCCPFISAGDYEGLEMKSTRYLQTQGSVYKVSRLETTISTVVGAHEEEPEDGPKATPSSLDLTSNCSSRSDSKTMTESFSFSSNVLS

`Cc1cc(F)ccc1-c1cc([C@H]2CC[C@](C)(C(N)=O)N2)ncc1N(C)C(=O)C(C)(C)c1cc(C(F)(F)F)cc(C(F)(F)F)c1` [Example 2, (5R)-5-[5-[{2-[3,5-bis(trifluoromethyl)phenyl]-2-methylpropanoyl}(methyl)amino]-4-(4-fluoro-2-methylphenyl)-2-pyridinyl]-2-methyl-D-prolinamide hydrochloride]: the Ki at human NK3 receptor is 79.4 nM; on human NK1 receptor, less than 0.17 nM.

Take `Cc1cc(F)ccc1-c1cc([C@H]2CC[C@@](C)(C(N)=O)N2)ncc1N(C)C(=O)C(C)(C)c1cc(C(F)(F)F)cc(C(F)(F)F)c1` [Example 4, (5R)-5-[5-[{2-[3,5-bis(trifluoromethyl)phenyl]-2-methylpropanoyl}(methyl)amino]-4-(4-fluoro-2-methylphenyl)-2-pyridinyl]-2-methyl-L-prolinamide hydrochloride]: the Ki at human NK3 receptor was 63.1 nM; on human NK1 receptor it was less than 0.17 nM.

For `Cc1cc(F)ccc1-c1cc([C@@H]2CC[C@](C)(C(N)=O)N2)ncc1N(C)C(=O)C(C)(C)c1cc(C(F)(F)F)cc(C(F)(F)F)c1` [Example 6, (5S)-5-[5-[{2-[3,5-bis(trifluoromethyl)phenyl]-2-methylpropanoyl}(methyl)amino]-4-(4-fluoro-2-methylphenyl)-2-pyridinyl]-2-methyl-D-prolinamide hydrochloride], the Ki on human NK3 receptor is 158 nM; at human NK1 receptor it was less than 0.17 nM.

The values are drawn from patent publication US20090286836A1, “Novel Compounds” (priority 2008, published 2009).
